Test results reported in patent US7176281B2 (priority 2003, dated 2007).
Where a SMILES comes first, the peptide text is derived from it.

What was measured:
sPLA2 = assay: Inhibition of sPLA2 activity at fixed concentrations; type: biochemical
[1] = target: T1, Group IIA purified human synovial sPLA2 (Homo sapiens, UniProt P14555); assay: In vitro inhibition of purified human synovial sPLA2, 3H-labelled E. coli membranes; type: biochemical; conditions: fixed peptide concentration 5 μM
T1 construct: purchased Cayman, USA
T1 sequence (P14555 21-144): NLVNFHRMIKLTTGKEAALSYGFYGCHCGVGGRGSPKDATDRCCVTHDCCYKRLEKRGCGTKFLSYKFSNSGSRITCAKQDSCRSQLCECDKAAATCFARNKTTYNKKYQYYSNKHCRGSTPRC

[2] = tested on: Tg197 transgenic mice (chronic inflammatory polyarthritis); assay: Tg197 transgenic mouse arthritis model, experiment 1 (5 weeks); type: in vivo; conditions: for % of total joints, AS (1) / % of total joints, AS (1.5–2): 5 week post-treatment; for % of total at indicated HS scores, HS 2 / % of total at indicated HS scores, HS 3 / % of total at indicated HS scores, HS 4 / Mean HS ± SEM: 5 weeks
Method: The candidate peptide P-NT.II was dissolved in dimethyl sulfoxide (DMSO) at a final concentration of 3 mg/mL. Two sets of experiments were conducted. In Experiment 1 (n=28 Transgenic (Tg197)+7 wild type (wt), peptide-treated animals (Group B) received intra-peritoneal (i.p) injections of 10 mg/kg, thrice weekly for 5 consecutive weeks, while the vehicle controls (Group E) were injected with DMSO (3 mL/kg) only. Non-transgenic (wild type) mice in different groups (C, D) were similarly treated either with the same i.p dose of peptide or DMSO. At the end of the experiment following 5 weeks of peptide injection, each Tg197 mice received a total dose of 1.8 mg of peptide P-NT.II (0.9 μmole).
Disease monitoring was done by gross observations based on body weight measurements and arthritis scoring, which were done twice weekly after treatment until all the animals were sacrificed at 5th week in experiment 1, or at 4th week in experiment 2. Arthritis score (AS) was recorded on both ankle joints, and average scores as shown below were taken: • 0=no arthritis (normal appearance and flexion); • 0.5=onset of arthritis (mild joint swelling); • 1.0=mild arthritis (joint distortion); • 1.5=as above+finger deformation, less strength on flexion; • […]=moderate arthritis (severe swelling, joint deformation, no strength on flexion); • 2.5=as above+finger deformation in paws; • 3.0=heavy arthritis (ankylosis detected on flexion and severely impaired movement).
For histopathological scoring, both hind legs were dissected and fixed in 10% formaldehyde overnight, decalcified in citrate-buffered formic acid for 3 days at 4° C., and processed for light microscopy (LM). • Histopathological score (HS) was evaluated as follows: • 0=no detectable pathology, • 1=hyperplasia of the synovial membrane and presence of polymorphonuclear infiltrates • 2=pannus and fibrous tissue formation and focal subchondrial bone erosion • 3=articular cartilage destruction and bone erosion • 4=articular cartilage destruction and extensive bone erosion.
Anti-inflammatory activity of the candidate peptide P-NT.II was examined as a new treatment option for modulating rheumatoid arthritis (RA) in a transgenic animal model. To evaluate the potential effectiveness of the peptide as prophylaxis against RA, two separate experiments were performed in 4 week-old transgenic (Tg197) mice and non-transgenic wild-type (wt) mice. These transgenic mice (Tg197) express human tumor necrosis factor (TNFα), a cytokine which has been implicated in the pathogenesis of human RA.

[3] = tested on: murine macrophage cell line J774; assay: LPS- or TNF-induced PGE2 production in J774 macrophages; type: cell-based, mouse; conditions: J774 cells, 20 h
Method: The murine macrophage cell line J774 (ATCC, USA) was cultured at 37° C. in humidified 5% CO2/95% air in Dulbecco's Modified Eagle's Medium (DMEM) containing 10% foetal bovine serum, 2 mM glutamine, 20 mM Hepes, 100 Ul/ml penicillin and 100 μg/ml streptomycin. After growing to confluence, the cells were dislodged by scrapping, plated in 12 culture wells at a density of 5×10^5 cells/ml per well, and allowed to adhere for 2 h. […] Culture medium supernatants were collected after centrifugation (10,000 g, 4° C., 15 min) and stored at −80° C. prior to measurement of PGE2, which was done according to the manufacturer's instructions (EIA kit-monoclonal, Cayman Chemical, USA).
FIGS. 13A and 13B show modulation of LPS- and TNF-stimulated PGE2 release. […] Supernatants were collected, and PGE2 release in the medium was determined by ELISA. Results are shown as the mean±SEM of 5 experiments performed in duplicate. **P<0.01 between inhibitor-treated and untreated cultures.

serum sPLA2 = assay: Serum sPLA2 levels in Tg197 mice, E. coli membrane assay; type: in vivo, mouse; conditions: 3–4 weeks post-treatment
Method: Serum of transgenic (Tg197) mice and non-transgenic wild type controls were measured for sPLA2 using an Escherichia coli (E. coli) membrane assay as described previously [Eur J Biochem 2002, 269:719–727]. In brief, [^3H] arachidonate-labeled E. coli membrane suspension (5.8 μCi/μmol, Perkin Elmer, USA) was used as substrate, and 25 mM CaCl2-100 mM Tris-HCl (pH 7.5) as assay buffer. The reaction mixture containing substrate (20 μl), and either purified human synovial sPLA2 standard (1–80 ng/ml, Cayman, USA) or serum (10 μl) in a final volume of 250 μl in assay buffer was incubated at 37° C. for 1 h, and the reaction terminated with 750 μl of chilled PBS containing 1% BSA. 500 μl aliquots of the supernatant were then taken to measure the amount of [^3H] arachidonate released from the E. coli membrane using liquid scintillation counting (Beckman LS 6500 Scintillation Counter). The amount of sPLA2 present in the serum was calculated from the standard curve, and is expressed as ng/ml±SEM.
FIG. 12 depicts time course of serum sPLA2 levels. Serum sPLA2 levels were measured with an E. coli membrane assay in blood samples collected from untreated, P-NT.I- and scrambled P-NT.II-treated Tg197 mice at weekly intervals. Values are the mean±SD (n=4/group). […]

CC[C@H](C)[C@H](NC(=O)[C@H](Cc1ccc(O)cc1)NC(=O)[C@@H](NC(=O)CNC(=O)[C@H](CC(=O)O)NC(=O)[C@H](Cc1c[nH]c2ccccc12)NC(=O)[C@@H](NC(=O)[C@H](Cc1c[nH]cn1)NC(=O)[C@@H](NC(=O)[C@H](CC(=O)O)NC(=O)[C@@H](NC(=O)[C@H](CCCNC(=N)N)NC(=O)CNC(=O)[C@@H](N)CC(C)C)C(C)C)[C@@H](C)CC)C(C)C)C(C)C)C(=O)N[C@@H](CCCNC(=N)N)C(=O)NCC(=O)N[C@@H](CCCNC(=N)N)C(=O)O [P-NT.II] (H-LGRVDIHVWDGVYIRGR-OH; N-terminus and C-terminus assumed)
inhibition of sPLA2 activity (sPLA2; 6 μM): 80%
inhibition of sPLA2 activity (sPLA2; 10 μM): 90%
inhibition at 5 µM [1]: 55.6%
% of total joints, AS (1) ([2]; 4 M + 3 F, 14 joints): 50%
% of total joints, AS (1.5–2) ([2]; 4 M + 3 F, 14 joints): 50%
% of total at indicated HS scores, HS 2 ([2]; 4 M + 3 F, 14 joints): 35.7%
% of total at indicated HS scores, HS 3 ([2]; 4 M + 3 F, 14 joints): 64.3%
% of total at indicated HS scores, HS 4 ([2]; 4 M + 3 F, 14 joints): 0%
Mean HS ± SEM ([2]; 4 M + 3 F, 14 joints): 2.71 ± 0.15
% of total at indicated HS scores, HS 2 ([2]; 4 M, 8 joints, 10 mg/kg i.p. thrice weekly): 62.5%
% of total joints, AS (1) ([2]; 4 M, 8 joints): 87%
% of total joints, AS (1.5–2) ([2]; 4 M, 8 joints): 13%
% of total at indicated HS scores, HS 3 ([2]; 4 M, 8 joints): 37.5%
% of total at indicated HS scores, HS 4 ([2]; 4 M, 8 joints): 0%
Mean HS ± SEM ([2]; 4 M, 8 joints): 2.37 ± 0.18
effect of peptide on joint damage ([2]; females, P>0.05): less evident
histological scores compared with untreated or DMSO-treated groups ([2]; male Tg197 mice, P<0.001): significantly lower histological scores
histological scores compared with untreated or DMSO-treated mice ([2]; males + females, P<0.05): significantly lower histological scores
LPS- or TNF-induced PGE2 production [3]: dose-dependently inhibit
circulating sPLA2 compared with untreated mice (serum sPLA2): significantly suppressed
